Values of other authors as cited in PubChem BioAssay AID1259409 (Chemical Carcinogenesis Research Information System (CCRIS), 2018).

System: rodent chemically induced tumor inhibition, incidence and multiplicity
Experiment: CCRIS tumor inhibitor studies
Settings: Route [Inhibitor]: ORAL

CC1=C(/C=C/C(C)=C/C=C/C(C)=C/C(=O)Nc2ccc(O)cc2)C(C)(C)CCC1
tumour outcome (control, treated, inhibition, significance) (Carcinogen: 1,2-DIMETHYLHYDRAZINE, 540-73-8, Dose [Inhibitor]: 2.0 MMOL/KG DIET DAILY STARTING 12 D AFTER CARCINOGEN TREATMENT THROUGH ABOUT 8 MO AFTER CARCINOGEN DOSE (STUDY DURATION, Species: RAT, Strain/Sex: F344/MALE, Target Tissue: Type of Lesion: COLON: ADENOCARCINOMA, Dose [Carcinogen]: 150 MG/KG BW ONCE, Promoter: NONE USED): 10/39 (26%), 5/30 (17%), 35%, not significant | tumour outcome (control, treated, inhibition, significance) (Carcinogen: 1,2-DIMETHYLHYDRAZINE, 540-73-8, Dose [Inhibitor]: 2.0 MMOL/KG DIET DAILY STARTING 12 D AFTER CARCINOGEN TREATMENT THROUGH ABOUT 8 MO AFTER CARCINOGEN DOSE (STUDY DURATION, Species: RAT, Strain/Sex: F344/MALE, Target Tissue: Type of Lesion: COLON: ADENOMA, Dose [Carcinogen]: 150 MG/KG BW ONCE, Promoter: NONE USED): 23/39 (59%), 7/30 (23%), 61%, p<0.05 | tumour outcome (control, treated, inhibition, significance) (Carcinogen: 4-(METHYLNITROSAMINO)-1-(3-PYRIDYL)-1-BUTANONE [64091-50-5], Dose [Inhibitor]: 2 MMOL/KG IN DIET FOR 17 WK BEGINNING 1 WK PRIOR TO FIRST CARCINOGEN DOSE (STUDY DURATION: 17 WK), Species: MOUSE, Strain/Sex: A/J/FEMALE, Target Tissue: Type of Lesion: LUNG: ADENOMA, Dose [Carcinogen]: 10 UMOL ONCE 1 WK POST FIRST INHIBITOR DOSE (STUDY DURATION: 17 WK), Promoter: NONE): 100%, 100%, 0%, not significant | tumour outcome (control, treated, inhibition, significance) (Carcinogen: 4-(METHYLNITROSAMINO)-1-(3-PYRIDYL)-1-BUTANONE [64091-50-5], Dose [Inhibitor]: 2 MMOL/KG IN DIET FOR 53 WK BEGINNING 1 WK PRIOR TO FIRST CARCINOGEN DOSE (STUDY DURATION: 53 WK), Species: MOUSE, Strain/Sex: A/J/FEMALE, Target Tissue: Type of Lesion: LUNG: ADENOMA OR ADENOCARCINOMA, Dose [Carcinogen]: 10 UMOL ONCE 1 WK POST FIRST INHIBITOR DOSE (STUDY DURATION: 53 WK), Promoter: NONE): 100%, 100%, 0%, not significant | tumour outcome (control, treated, inhibition, significance) (Carcinogen: 4-(METHYLNITROSAMINO)-1-(3-PYRIDYL)-1-BUTANONE [64091-50-5], Dose [Inhibitor]: 4 MMOL/KG IN DIET FOR 17 WK BEGINNING 1 WK PRIOR TO FIRST CARCINOGEN DOSE (STUDY DURATION: 17 WK), Species: MOUSE, Strain/Sex: A/J/FEMALE, Target Tissue: Type of Lesion: LUNG: ADENOMA, Dose [Carcinogen]: 10 UMOL ONCE 1 WK POST FIRST INHIBITOR DOSE (STUDY DURATION: 17 WK), Promoter: NONE): 100%, 100%, 0%, not significant | tumour outcome (control, treated, inhibition, significance) (Carcinogen: 4-(METHYLNITROSAMINO)-1-(3-PYRIDYL)-1-BUTANONE [64091-50-5], Dose [Inhibitor]: 4 MMOL/KG IN DIET FOR 53 WK BEGINNING 1 WK PRIOR TO FIRST CARCINOGEN DOSE (STUDY DURATION: 53 WK), Species: MOUSE, Strain/Sex: A/J/FEMALE, Target Tissue: Type of Lesion: LUNG: ADENOMA OR ADENOCARCINOMA, Dose [Carcinogen]: 10 UMOL ONCE 1 WK POST FIRST INHIBITOR DOSE (STUDY DURATION: 53 WK), Promoter: NONE): 100%, 93%, 7%, not significant | tumour outcome (control, treated, inhibition, significance) (Carcinogen: 7,12-DIMETHYLBENZ[A]ANTHRACENE, 57-97-6, Dose [Inhibitor]: 0, 1 MMOL/KG IN DIET FOR THE DURATION OF STUDY BEGINNING 1 WK PRIOR TO CARCINOGEN DOSE (STUDY DURATION: 105 WK), Species: RAT, Strain/Sex: SPRAGUE-DAWLEY/FEMALE, Target Tissue: Type of Lesion: MAMMARY GLAND: TUMOR, Dose [Carcinogen]: 15 MG IN 1 ML SESAME OIL ONCE, Promoter: NONE USED): 88%, 73%, 17%, not significant | tumour outcome (control, treated, inhibition, significance) (Carcinogen: 7,12-DIMETHYLBENZ[A]ANTHRACENE, 57-97-6, Dose [Inhibitor]: 0, 2 MMOL/KG IN DIET FOR THE DURATION OF STUDY BEGINNING 1 WK PRIOR TO CARCINOGEN DOSE (STUDY DURATION: 105 WK), Species: RAT, Strain/Sex: SPRAGUE-DAWLEY/FEMALE, Target Tissue: Type of Lesion: MAMMARY GLAND: TUMOR, Dose [Carcinogen]: 15 MG IN 1 ML SESAME OIL ONCE, Promoter: NONE USED): 88%, 33%, 63%, not significant | tumour outcome (control, treated, inhibition, significance) (Carcinogen: 7,12-DIMETHYLBENZ[A]ANTHRACENE, 57-97-6, Dose [Inhibitor]: 0, 2 MMOL/KG OF DIET FOR 15.5 WK BEGINNING 10 D PRIOR TO CARCINOGEN DOSE (STUDY DURATION: 17 WK), Species: RAT, Strain/Sex: SPRAGUE-DAWLEY/FEMALE, Target Tissue: Type of Lesion: MAMMARY GLAND: TUMOR, Dose [Carcinogen]: 15 MG IN 1 ML OF SESAME OIL ONCE AT 50 D OF AGE, Promoter: NONE USED): 92%, 58%, 37%, not calculated | tumour outcome (control, treated, inhibition, significance) (Carcinogen: 7,12-DIMETHYLBENZ[A]ANTHRACENE, 57-97-6, Dose [Inhibitor]: 0, 2 MMOL/KG OF DIET FOR 18.5 WK BEGINNING 10 D PRIOR TO CARCINOGEN DOSE (STUDY DURATION: 18.5 WK), Species: RAT, Strain/Sex: SPRAGUE-DAWLEY/FEMALE, Target Tissue: Type of Lesion: MAMMARY GLAND: TUMOR, Dose [Carcinogen]: 15 MG IN 1 ML OF SESAME OIL ONCE AT 50 D OF AGE, Promoter: NONE USED): 83%, 33%, 60%, not calculated | tumour outcome (control, treated, inhibition, significance) (Carcinogen: 7,12-DIMETHYLBENZ[A]ANTHRACENE, 57-97-6, Dose [Inhibitor]: 0, 2 MMOL/KG OF DIET FOR 20 D BEGINNING 10 D PRIOR TO CARCINOGEN DOSE (STUDY DURATION: 18.5 WK), Species: RAT, Strain/Sex: SPRAGUE-DAWLEY/FEMALE, Target Tissue: Type of Lesion: MAMMARY GLAND: TUMOR, Dose [Carcinogen]: 15 MG IN 1 ML OF SESAME OIL ONCE AT 50 D OF AGE, Promoter: NONE USED): 100%, 67%, 33%, not calculated | tumour outcome (control, treated, inhibition, significance) (Carcinogen: 7,12-DIMETHYLBENZ[A]ANTHRACENE, 57-97-6, Dose [Inhibitor]: 0.75 MMOL/KG OF DIET IN 25 ML OF THE VEHICLE (ETHANOL/TRICAPRYLIN 1:4 (VOL/VOL) PLUS 6% (WT/VOL) ALPHA-TOCOPHEROL) BEGIN, Species: RAT, Strain/Sex: SPRAGUE-DAWLEY/FEMALE, Target Tissue: Type of Lesion: MAMMARY GLAND: TUMOR, Dose [Carcinogen]: 75 MG/KG BW IN 1.0 ML SESAME OIL ONCE, Promoter: NONE USED): 70%, 65%, 7%, not significant
